Source: patent US20100317524A1, “Sulfonylureas” (Bayer CropScience AG, priority 2005, published 2010)

Legend:
[1] = tested on: weed plants such as Sinapis alba, Chrysanthemum segetum, Avena sativa, Stellaria media, Echinochloa crus-galli, Lolium multiflorum, Setaria viridis, Abutilon …; assay: Pre-emergence effect on weeds (greenhouse pot test, visual scoring); format: in vivo; settings: applied pre-emergence at a rate of 0.3 kg or less of active substance per hectare; visual scoring after 3 to 4 weeks vs untreated controls
From the text: Seeds or sections of rhizome from monocot and dicot weed plants were laid out in sandy loam soil in cardboard pots, and covered with soil. The compounds of the invention, formulated as wettable powders or emulsifiable concentrates, were then applied, in the form of aqueous suspensions or emulsions, at various dosages, onto the surface of the covering earth, at an application rate of 600 to 800 l of water per hectare (converted). Following the treatment, the pots were placed in a greenhouse and maintained under good growth conditions for the weeds. Visual scoring of the plant damage or emergence damage was made when the test plants had emerged, after a test time of 3 to 4 weeks, in comparison to untreated controls.

[2] = tested on: weed plants such as Sinapis alba, Echinochloa crus-galli, Lolium multiflorum, Chrysanthemum segetum, Setaria viridis, Abutilon theophrasti, Amaranthus …; assay: Post-emergence effect on weeds (greenhouse pot test, visual scoring); format: in vivo; settings: applied post-emergence (three-leaf stage) at a rate of 0.3 kg or less of active substance per hectare; visual scoring after about 3 to 4 weeks vs untreated controls
Description: Seeds or sections of rhizome from monocot and dicot broadleaf weeds were laid out in sandy loam soil in plastic pots, covered with earth, and cultivated in a greenhouse under good growth conditions. Three weeks after sowing, the test plants were treated at the three-leaf stage. The compounds of the invention, formulated as wettable powders or as emulsion concentrates, were sprayed in different dosages onto the green parts of the plants, at an application rate of 600 to 800 l of water per hectare (converted). After the test plants had stood in the greenhouse under optimum growth conditions for a period of about 3 to 4 weeks, the effect of the products was scored visually in comparison to untreated controls.

| SMILES | herbicidal action against weed plants, pre-emergence [1] | herbicidal action against weed plants, post-emergence [2] |
| --- | --- | --- |
| COc1cc(Cl)nc(NC(=O)NS(=O)(=O)c2c(I)cccc2OC(C)C)n1 [Compound 1.187] | very good herbicidal action | very good herbicidal action |
| COc1nc(NC(=O)NS(=O)(=O)c2c(I)cccc2C(F)(F)F)nc(OC)n1 [Compound 1.104] | very good herbicidal action | very good herbicidal action |
| COc1cc(OC)nc(NC(=O)NS(=O)(=O)c2c(I)cccc2SC)n1 [Compound 1.389] | very good herbicidal action | very good herbicidal action |
| COc1nc(NC(=O)NS(=O)(=O)c2c(I)cccc2OCC2CC2)nc(OC)n1 [Compound 1.242] | very good herbicidal action | very good herbicidal action |
| CCOc1cccc(I)c1S(=O)(=O)NC(=O)Nc1nc(OC)cc(OC)n1 [Compound 1.164] | very good herbicidal action | very good herbicidal action |
| COc1cc(OC)nc(NC(=O)NS(=O)(=O)c2c(I)cccc2OCC(C)C)n1 [Compound 1.197] | very good herbicidal action | very good herbicidal action |
| Cc1cc(C)nc(NC(=O)NS(=O)(=O)c2c(I)cccc2OCC2CC2)n1 [Compound 1.237] | very good herbicidal action | very good herbicidal action |
| COc1cc(OC)nc(NC(=O)NS(=O)(=O)c2c(I)cccc2OC(C)C)n1 [Compound 1.178] | very good herbicidal action | very good herbicidal action |
| Cc1cc(C)nc(NC(=O)NS(=O)(=O)c2c(I)cccc2OC(C)C(F)(F)F)n1 (centres unmarked) [Compound 1.364] | very good herbicidal action | very good herbicidal action |
| CCCOc1cccc(I)c1S(=O)(=O)NC(=O)Nc1nc(C)cc(C)n1 [Compound 1.173] | very good herbicidal action | very good herbicidal action |
| CCCCOc1cccc(I)c1S(=O)(=O)NC(=O)Nc1nc(C)cc(C)n1 [Compound 1.554] | very good herbicidal action | very good herbicidal action |
| COc1cc(Cl)nc(NC(=O)NS(=O)(=O)c2c(I)cccc2OCC(F)F)n1 [Compound 1.354] | very good herbicidal action | very good herbicidal action |
| COc1cc(OC)nc(NC(=O)NS(=O)(=O)c2c(F)cccc2I)n1 [Compound 1.001] | very good herbicidal action | very good herbicidal action |
| COc1nc(C)nc(NC(=O)NS(=O)(=O)c2c(I)cccc2OC(C)C(F)(F)F)n1 (centres unmarked) [Compound 1.363] | very good herbicidal action | very good herbicidal action |
| CCOc1cccc(I)c1S(=O)(=O)NC(=O)Nc1nc(OC)nc(OC)n1 [Compound 1.168] | very good herbicidal action | very good herbicidal action |
| COc1nc(C)nc(NC(=O)NS(=O)(=O)c2c(I)cccc2OC(F)F)n1 [Compound 1.325] | very good herbicidal action | very good herbicidal action |
| COc1cc(Cl)nc(NC(=O)NS(=O)(=O)c2c(C)cccc2I)n1 [Compound 1.021] | very good herbicidal action | very good herbicidal action |

| SMILES | herbicidal action against weed plants, pre-emergence [1] | herbicidal action against weed plants, post-emergence [2] |
| --- | --- | --- |
| COc1nc(C)nc(NC(=O)NS(=O)(=O)c2c(I)cccc2OC(F)(F)F)n1 [Compound 1.306] | very good herbicidal action | very good herbicidal action |
| COc1nc(NC(=O)NS(=O)(=O)c2c(I)cccc2OCC(F)F)nc(OC)n1 [Compound 1.355] | very good herbicidal action | very good herbicidal action |
| COc1cc(OC)nc(NC(=O)NS(=O)(=O)c2c(I)cccc2C(F)(F)F)n1 [Compound 1.091] | very good herbicidal action | very good herbicidal action |
| COc1nc(NC(=O)NS(=O)(=O)c2c(I)cccc2OC)nc(OC)n1 [Compound 1.159] | very good herbicidal action | very good herbicidal action |
| COc1cc(OC)nc(NC(=O)NS(=O)(=O)c2c(I)cccc2OC(F)(F)F)n1 [Compound 1.302] | very good herbicidal action | very good herbicidal action |
| Cc1cc(C)nc(NC(=O)NS(=O)(=O)c2c(I)cccc2OCC(F)(F)C(F)(F)F)n1 [Compound 1.371] | very good herbicidal action | very good herbicidal action |
| COc1cc(Cl)nc(NC(=O)NS(=O)(=O)c2c(I)cccc2C(F)(F)F)n1 [Compound 1.100] | very good herbicidal action | very good herbicidal action |
| COc1cc(OC)nc(NC(=O)NS(=O)(=O)c2c(I)cccc2OC)n1 [Compound 1.146, N-{[(4,6-Dimethoxypyrimidin-2-yl)amino]carbonyl}-2-iodo-6-methoxybenzenesulfonamide] | very good herbicidal action | very good herbicidal action |
| CCCOc1cccc(I)c1S(=O)(=O)NC(=O)Nc1nc(OC)cc(OC)n1 [Compound 1.171] | very good herbicidal action | very good herbicidal action |
| COc1cc(Cl)nc(NC(=O)NS(=O)(=O)c2c(I)cccc2OC)n1 [Compound 1.155] | very good herbicidal action | very good herbicidal action |
| COc1nc(NC(=O)NS(=O)(=O)c2c(C)cccc2I)nc(OC)n1 [Compound 1.025] | very good herbicidal action | very good herbicidal action |
| Cc1cc(C)nc(NC(=O)NS(=O)(=O)c2c(I)cccc2C(F)(F)F)n1 [Compound 1.099] | very good herbicidal action | very good herbicidal action |
| COc1nc(NC(=O)NS(=O)(=O)c2c(I)cccc2OC(F)(F)F)nc(OC)n1 [Compound 1.315] | very good herbicidal action | very good herbicidal action |
| Cc1cc(C)nc(NC(=O)NS(=O)(=O)c2c(I)cccc2OCC(F)(F)F)n1 [Compound 1.343] | very good herbicidal action | very good herbicidal action |
| Cc1cc(C)nc(NC(=O)NS(=O)(=O)c2c(I)cccc2OC(F)(F)F)n1 [Compound 1.310] | very good herbicidal action | very good herbicidal action |
| Cc1cc(C)nc(NC(=O)NS(=O)(=O)c2c(I)cccc2OS(C)(=O)=O)n1 [Compound 1.471] | very good herbicidal action | very good herbicidal action |
| COc1nc(C)nc(NC(=O)NS(=O)(=O)c2c(OC)ccc(Cl)c2I)n1 [Compound 1.599] | very good herbicidal action | very good herbicidal action |
